Measurements: US12194039B2, “Methods of treating heart failure by administering omecamtiv mecarbil” (Cytokinetics, Inc., priority 2020, dated 2025)
Where two headings read alike, the source gives them in different places.

Tested on: patients with HFrEF by ejection fraction quartile
Assay type: in vivo, human
Set-up: Change from baseline in KCCQ Total Symptom Score, least square mean / KCCQ Total Symptom Score Inpatient, Treatment Difference, least squares mean / KCCQ Total Symptom Score Outpatient, Treatment Difference, least squares mean / KCCQ Total Symptom Score, Treatment Difference, least squares mean: scale not given here
Conditions: for Adjudicated First Major Cardiac Ischemic Events, % / Adjudicated First Stroke, % / Adverse Event: Ventricular Tachyarrhythmia, % / All-cause Death (%) / All-cause Death Rate / All-cause Death n/N / Any treatment Emergent Serious Adverse Events, % / Positively Adjudicated Myocardial Infarction, % / Serious Adverse Event: Ventricular Arrhythmia Requiring Treatment, % / 1st HF Hospitalization (%) / 1st HF Hospitalization Rate / 1st HF Hospitalization n/N / First HF Event (%) / First HF Event Rate / First HF Event n/N / Primary Outcome (%) / Primary Outcome Rate / Primary Outcome n/N / Total HF Events, Events / Total HF Events, Rate / Total HF Hospitalizations, Events / Total HF Hospitalizations, Rate: OM group; for Adjudicated First Major Cardiac Ischemic Events, Relative Risk / Adjudicated First Stroke, Relative Risk / Adverse Event: Ventricular Tachyarrhythmia, Relative Risk / All-cause Death ARR / All-cause Death HR (95% CI) / Any treatment Emergent Serious Adverse Events, Relative Risk / Positively Adjudicated Myocardial Infarction, Relative Risk / Serious Adverse Event: Ventricular Arrhythmia Requiring Treatment, Relative Risk / 1st HF Hospitalization ARR / 1st HF Hospitalization HR (95% CI) / First HF Event ARR / First HF Event HR (95% CI) / Primary Outcome ARR / Primary Outcome HR (95% CI) / Total HF Events, ARR / Total HF Events, Ratio (95% CI) / Total HF Hospitalizations, ARR / Total HF Hospitalizations, Ratio (95% CI): OM vs placebo
Procedure: Continuous variables were summarized via means and standard deviations or medians and interquartile ranges, as appropriate. Categorical variables are summarized with counts and percentages. Tests of trend across categories were conducted via linear regression, Cuzick's non-parametric trend test, and Chi-squared tests of trend, respectively. Treatment effects on continuous outcomes were assessed via linear regression models adjusted for the corresponding baseline value of the parameter of interest. Survival analyses were conducted using Poisson regression models to estimate incidence rates, rate differences, and rate ratios and Cox proportional hazards models to estimate hazard ratios. […] To allow for potentially non-linear associations between ejection fraction and time-to-event outcomes, restricted cubic splines were utilized in the Poisson regression models with 3 knots. All analyses were conducted using STATA 16 (College Station, Tex.). P-values <0.05 were considered statistically significant. Due to the exploratory nature of these analyses, no adjustments were made for multiple comparisons.
Within each randomization setting subgroup least squares mean is from the mixed model which includes baseline total symptom score value, region, baseline eGFR, scheduled visit, treatment group and interaction of treatment with scheduled visit as covariates. Influence of Ejection Fraction on the Treatment Effect of Omecamtiv Mecarbil

[1] = EF 23-28%, baseline to Week 24, vs placebo
[2] = EF 29-32%, baseline to Week 24, vs placebo

In the case of `COC(=O)N1CCN(Cc2cccc(NC(=O)Nc3ccc(C)nc3)c2F)CC1` [omecamtiv mecarbil], the “Adjudicated First Major Cardiac Ischemic Events, %” value (EF22%) was 4.8%, the “Adjudicated First Stroke, %” value (EF22%) was 1.5% and the “Adverse Event: Ventricular Tachyarrhythmia, %” value (EF22%) was 9.8%. For the same compound, the “All-cause Death (%)” value (EF22%) was “(29%)”, the “All-cause Death Rate” value (EF22%) was 17.0 per 100 patient years and the “All-cause Death n/N” value (EF22%) was 329/1127. The “Any treatment Emergent Serious Adverse Events, %” value (EF22%) was “(60.7%)”, the “Positively Adjudicated Myocardial Infarction, %” value (EF22%) was 3.3% and the “Serious Adverse Event: Ventricular Arrhythmia Requiring Treatment, %” value (EF22%) was 3.6%. For the same compound, the “Adjudicated First Major Cardiac Ischemic Events, Relative Risk” value (EF22%) was “RR: 1.19”, the “Adjudicated First Stroke, Relative Risk” value (EF22%) was “RR: 0.65” and the “Adverse Event: Ventricular Tachyarrhythmia, Relative Risk” value (EF22%) was “RR: 1.00”. For the same compound, the “All-cause Death ARR” value (EF22%) was 0.8 per 100 patient years, the “All-cause Death HR (95% CI)” value (EF22%) was 0.98 (0.84, 1.14) and the “Any treatment Emergent Serious Adverse Events, Relative Risk” value (EF22%) was “RR: 0.94”. For the same compound, the “Positively Adjudicated Myocardial Infarction, Relative Risk” value (EF22%) was “RR: 1.22”, the “Serious Adverse Event: Ventricular Arrhythmia Requiring Treatment, Relative Risk” value (EF22%) was “RR: 0.88” and the “1st HF Hospitalization (%)” value (EF 23-28%) was “(27%)”. The “1st HF Hospitalization Rate” value (EF 23-28%) was 17.8 per 100 patient years, the “1st HF Hospitalization n/N” value (EF 23-28%) was 295/1086 and the “Adjudicated First Major Cardiac Ischemic Events, %” value (EF 23-28%) was 4.3%. For the same compound, the “Adjudicated First Stroke, %” value (EF 23-28%) was 1.8%, the “Adverse Event: Ventricular Tachyarrhythmia, %” value (EF 23-28%) was 8.3% and the “All-cause Death (%)” value (EF 23-28%) was “(26%)”. The “All-cause Death Rate” value (EF 23-28%) was 14.4 per 100 patient years, the “All-cause Death n/N” value (EF 23-28%) was 278/1086 and the “Any treatment Emergent Serious Adverse Events, %” value (EF 23-28%) was “(56.9%)”. The “First HF Event (%)” value (EF 23-28%) was “(28%)”, the “First HF Event Rate” value (EF 23-28%) was 18.5 per 100 patient years and the “First HF Event n/N” value (EF 23-28%) was 304/1086. For the same compound, the “Positively Adjudicated Myocardial Infarction, %” value (EF 23-28%) was 2.7%, the “Primary Outcome (%)” value (EF 23-28%) was “(36%)” and the “Primary Outcome Rate” value (EF 23-28%) was 24.0 per 100 patient years. For the same compound, the “Primary Outcome n/N” value (EF 23-28%) was 393/1086, the “Serious Adverse Event: Ventricular Arrhythmia Requiring Treatment, %” value (EF 23-28%) was 3.2% and the “Total HF Events, Events” value (EF 23-28%) was 577. The “Total HF Events, Rate” value (EF 23-28%) was 30.0 per 100 pt-yrs, the “Total HF Hospitalizations, Events” value (EF 23-28%) was 541 and the “Total HF Hospitalizations, Rate” value (EF 23-28%) was 28.1 per 100 pt-yrs. The “1st HF Hospitalization ARR” value (EF 23-28%) was 1.8 per 100 patient years, the “1st HF Hospitalization HR (95% CI)” value (EF 23-28%) was 0.86 (0.74, 1.01) and the “Adjudicated First Major Cardiac Ischemic Events, Relative Risk” value (EF 23-28%) was 1.00. For the same compound, the “Adjudicated First Stroke, Relative Risk” value (EF 23-28%) was 0.53, the “Adverse Event: Ventricular Tachyarrhythmia, Relative Risk” value (EF 23-28%) was 0.98 and the “All-cause Death ARR” value (EF 23-28%) was 1.4 per 100 patient years. For the same compound, the “All-cause Death HR (95% CI)” value (EF 23-28%) was 0.89 (0.76, 1.05), the “Any treatment Emergent Serious Adverse Events, Relative Risk” value (EF 23-28%) was 0.96 and the “First HF Event ARR” value (EF 23-28%) was 2.4 per 100 patient years. For the same compound, the “First HF Event HR (95% CI)” value (EF 23-28%) was 0.84 (0.72, 0.98), the “Positively Adjudicated Myocardial Infarction, Relative Risk” value (EF 23-28%) was 0.89 and the “Primary Outcome ARR” value (EF 23-28%) was 3.3 per 100 patient years. The “Primary Outcome HR (95% CI)” value (EF 23-28%) was 0.85 (0.74, 0.97), the “Serious Adverse Event: Ventricular Arrhythmia Requiring Treatment, Relative Risk” value (EF 23-28%) was 1.04 and the “Total HF Events, ARR” value (EF 23-28%) was 4.0 per 100 pt-yrs. The “Total HF Events, Ratio (95% CI)” value (EF 23-28%) was 0.83 (0.68, 1.01), the “Total HF Hospitalizations, ARR” value (EF 23-28%) was 3.2 per 100 pt-yrs and the “Total HF Hospitalizations, Ratio (95% CI)” value (EF 23-28%) was 0.84 (0.69, 1.02). The “Creatinine, Treatment Difference” value [1] was 0.01 mg/dL, the “Heart rate, Treatment Difference” value [1] was −1.7 bpm and the “KCCQ Total Symptom Score, Treatment Difference, least squares mean” value [1] was −0.6. The “NT-proBNP (Ratio)” value [1] was 0.90, the “Potassium, Treatment Difference” value [1] was -0.01 mmol/L and the “Systolic BP, Treatment Difference” value [1] was −0.6 mmHg. For the same compound, the “Troponin I (Ratio)” value [1] was 1.29, the “Troponin I, Treatment Difference (95% CI)” value [1] was 4 (3, 5) ng/L and the “1st HF Hospitalization (%)” value (EF 29-32%) was “(27%)”. For the same compound, the “1st HF Hospitalization Rate” value (EF 29-32%) was 17.6 per 100 patient years, the “1st HF Hospitalization n/N” value (EF 29-32%) was 279/1015 and the “Adjudicated First Major Cardiac Ischemic Events, %” value (EF 29-32%) was 4.1%. The “Adjudicated First Stroke, %” value (EF 29-32%) was 2.4%, the “Adverse Event: Ventricular Tachyarrhythmia, %” value (EF 29-32%) was 6.9% and the “All-cause Death (%)” value (EF 29-32%) was “(26%)”. The “All-cause Death Rate” value (EF 29-32%) was 13.9 per 100 patient years, the “All-cause Death n/N” value (EF 29-32%) was 260/1015 and the “Any treatment Emergent Serious Adverse Events, %” value (EF 29-32%) was “(57.3%)”. The “First HF Event (%)” value (EF 29-32%) was “(28%)”, the “First HF Event Rate” value (EF 29-32%) was 18.2 per 100 patient years and the “First HF Event n/N” value (EF 29-32%) was 286/1015. For the same compound, the “Positively Adjudicated Myocardial Infarction, %” value (EF 29-32%) was 2.2%, the “Primary Outcome (%)” value (EF 29-32%) was “(37%)” and the “Primary Outcome Rate” value (EF 29-32%) was 23.8 per 100 patient years. For the same compound, the “Primary Outcome n/N” value (EF 29-32%) was 375/1015, the “Serious Adverse Event: Ventricular Arrhythmia Requiring Treatment, %” value (EF 29-32%) was 2.1% and the “Total HF Events, Events” value (EF 29-32%) was 506. The “Total HF Events, Rate” value (EF 29-32%) was 27.1 per 100 pt-yrs, the “Total HF Hospitalizations, Events” value (EF 29-32%) was 472 and the “Total HF Hospitalizations, Rate” value (EF 29-32%) was 25.3 per 100 pt-yrs. For the same compound, the “1st HF Hospitalization ARR” value (EF 29-32%) was −2.1 per 100 patient years, the “1st HF Hospitalization HR (95% CI)” value (EF 29-32%) was 1.19 (1.01, 1.42) and the “Adjudicated First Major Cardiac Ischemic Events, Relative Risk” value (EF 29-32%) was 1.08. For the same compound, the “Adjudicated First Stroke, Relative Risk” value (EF 29-32%) was 0.83, the “Adverse Event: Ventricular Tachyarrhythmia, Relative Risk” value (EF 29-32%) was 0.96 and the “All-cause Death ARR” value (EF 29-32%) was −2.0 per 100 patient years. For the same compound, the “All-cause Death HR (95% CI)” value (EF 29-32%) was 1.19 (0.99, 1.42), the “Any treatment Emergent Serious Adverse Events, Relative Risk” value (EF 29-32%) was 0.99 and the “First HF Event ARR” value (EF 29-32%) was −1.3 per 100 patient years. For the same compound, the “First HF Event HR (95% CI)” value (EF 29-32%) was 1.13 (0.96, 1.33), the “Positively Adjudicated Myocardial Infarction, Relative Risk” value (EF 29-32%) was 1.00 and the “Primary Outcome ARR” value (EF 29-32%) was −1.4 per 100 patient years. The “Primary Outcome HR (95% CI)” value (EF 29-32%) was 1.11 (0.96, 1.28), the “Serious Adverse Event: Ventricular Arrhythmia Requiring Treatment, Relative Risk” value (EF 29-32%) was 0.78 and the “Total HF Events, ARR” value (EF 29-32%) was 0.6 per 100 pt-yrs. The “Total HF Events, Ratio (95% CI)” value (EF 29-32%) was 1.14 (0.93, 1.40), the “Total HF Hospitalizations, ARR” value (EF 29-32%) was −0.1 per 100 pt-yrs and the “Total HF Hospitalizations, Ratio (95% CI)” value (EF 29-32%) was 1.18 (0.96, 1.46). For the same compound, the “Creatinine, Treatment Difference” value [2] was 0.01 mg/dL, the “Heart rate, Treatment Difference” value [2] was −1.9 bpm and the “KCCQ Total Symptom Score, Treatment Difference, least squares mean” value [2] was “+0.3”. For the same compound, the “NT-proBNP (Ratio)” value [2] was 0.95, the “Potassium, Treatment Difference” value [2] was -0.01 mmol/L and the “Systolic BP, Treatment Difference” value [2] was −0.6 mmHg.
